The IC50 is the concentration needed to halve the response being measured. Higher therefore signals lower potency. As usually defined, the EC50 is the midpoint of the concentration-response curve.

One assay addresses T1, BRAF V600E (Homo sapiens, UniProt P15056, V600E).
T1 construct: purchased Upstate Biotechnology
The experiment in a line: BRAF V600E biochemical kinase activity assay (AlphaScreen, biotin-MEK1 substrate). Conditions: BRAF V600E biochemical inhibitory activity.

The subject of a further assay is B9 (HRAS Q61L) cell line. The experiment in a line: B9 P-ERK cell activation assay (AlphaScreen). The assay is classed as cell-based, mouse. Conditions: Mus musculus; P-ERK cell activation, B9; numeric bounds; read-out: Cell activity (EC50 μM) B9_pERK. A digest of the protocol: (§1)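 Mouse B9 (HRAS-driven skin SCC) or human IPC-298 melanoma cells treated with an 8-point compound titration for one hour at 37° C., then lysed. ERK1/2 phosphorylation at Thr202/Tyr204 read by AlphaScreen with total-ERK and phospho-ERK antibodies.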

The test system of assay [1] is IPC-298 (NRAS Q61L) cell line. The experiment in a line: IPC-298 P-ERK cell activation assay (AlphaScreen). Type of assay: cell-based, human. The settings on record: Homo sapiens; P-ERK cell activation, IPC-298; numeric bounds; read-out: Cell activity (EC50 μM) IPC-298_P-ERK. In outline: as §1
For orientation: In Alpha technology, singlet oxygen from a donor bead excites a nearby acceptor bead.

Assay [2] has as its system A375 (BRAF V600E) cell line. Put plainly: A375 P-ERK inhibition assay (AlphaScreen). The assay is classed as cell-based, human. Conditions: Homo sapiens, A-375; A375_P-ERK. A digest of the protocol: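 A375 cells treated with 8-point compound titration for 1 h at 37° C, then lysed. ERK1/2 Thr202/Tyr204 phosphorylation measured by AlphaScreen, using biotinylated total-ERK antibody on donor beads and phospho-specific antibody on acceptor beads.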

T1 sequence (P15056 whole entry V600E): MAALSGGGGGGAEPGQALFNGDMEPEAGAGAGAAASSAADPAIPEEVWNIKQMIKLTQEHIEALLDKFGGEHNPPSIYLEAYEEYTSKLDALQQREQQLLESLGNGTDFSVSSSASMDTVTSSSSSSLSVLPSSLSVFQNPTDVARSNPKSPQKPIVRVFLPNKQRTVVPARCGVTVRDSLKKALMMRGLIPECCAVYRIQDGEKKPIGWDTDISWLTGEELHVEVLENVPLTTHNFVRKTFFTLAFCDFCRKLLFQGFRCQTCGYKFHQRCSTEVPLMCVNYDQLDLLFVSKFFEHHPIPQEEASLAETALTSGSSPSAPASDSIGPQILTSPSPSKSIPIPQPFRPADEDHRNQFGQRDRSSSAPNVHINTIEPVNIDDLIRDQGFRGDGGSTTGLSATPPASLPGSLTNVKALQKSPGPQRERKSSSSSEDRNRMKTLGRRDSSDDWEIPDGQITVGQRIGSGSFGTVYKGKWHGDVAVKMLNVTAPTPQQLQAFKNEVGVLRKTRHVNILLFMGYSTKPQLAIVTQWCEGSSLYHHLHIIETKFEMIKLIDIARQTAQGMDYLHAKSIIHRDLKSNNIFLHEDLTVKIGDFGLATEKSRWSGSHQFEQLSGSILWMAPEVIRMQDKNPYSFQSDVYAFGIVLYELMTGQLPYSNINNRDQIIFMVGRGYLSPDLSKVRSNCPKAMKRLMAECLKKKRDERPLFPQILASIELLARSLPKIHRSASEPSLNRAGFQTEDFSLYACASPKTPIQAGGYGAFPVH

With `CN(C)S(=O)(=O)Nc1cccc(-c2nc(C(C)(C)C)sc2-c2ccnc(N)n2)c1F` [P-2093, 5-(2-aminopyrimidin-4-yl)-2-tert-butyl-4-[3-(dimethylsulfamoylamino)-2-fluoro-phenyl]thiazole], the IC50 (against BRAF V600E; in assay [2]) was 0.0001 to 1 µM each time. Moreover, the EC50 (with B9 (HRAS Q61L) cell line; in assay [1]) was > 1 µM each time.

For `CCN(CC)S(=O)(=O)Nc1ccc(F)c(C(=O)c2c[nH]c3nccc(C#N)c23)c1F` [P-2012, 4-cyano-3-[3-(diethylsulfamoylamino)-2,6-difluoro-benzoyl]-1H-pyrrolo[2,3-b]pyridine], the IC50 lay within 0.0001 to 1 µM at BRAF V600E and 1 to 10 µM in assay [2]. For the same compound, the half-maximal effective concentration (EC50) (in the assay on B9 (HRAS Q61L) cell line; in assay [1]) was > 10 µM throughout.

In the case of `CCN(C)S(=O)(=O)Nc1cccc(C(=O)c2c[nH]c3ncnc(NCC(C)(C)O)c23)c1F` [P-2069, 5-[3-[[ethyl(methyl)sulfamoyl]amino]-2-fluoro-benzoyl]-4-[(2-hydroxy-2-methyl-propyl)amino]-7H-pyrrolo[2,3-d]pyrimidine], the IC50 (against BRAF V600E; in assay [2]) was 0.0001 to 1 µM each time. Also, the EC50 (in the assay with B9 (HRAS Q61L) cell line; in assay [1]) was > 10 µM in each case.

Turning to `NCCNc1ncnc2[nH]cc(C(=O)c3cccc(NS(=O)(=O)N4CCCC4)c3F)c12` [P-2102, N-[3-[4-(2-aminoethylamino)-7H-pyrrolo[2,3-d]pyrimidine-5-carbonyl]-2-fluoro-phenyl]pyrrolidine-1-sulfonamide], the IC50 on BRAF V600E is 0.0001 to 1 µM; in assay [2], 1 to 10 µM. Moreover, the EC50 (in the assay on B9 (HRAS Q61L) cell line; in assay [1]) was > 10 µM throughout.

As for `CC(C)S(=O)(=O)Nc1ccc(F)c(C(=O)c2c[nH]c3nccc(C#N)c23)c1F` [P-2017, N-[3-(4-cyano-1H-pyrrolo[2,3-b]pyridine-3-carbonyl)-2,4-difluoro-phenyl]propane-2-sulfonamide], the IC50 (on BRAF V600E; in assay [2]) was 0.0001 to 1 µM each time. Further, the concentration giving a half-maximal response (EC50) (in the assay on B9 (HRAS Q61L) cell line; in assay [1]) was > 10 µM throughout.

Regarding `COc1ccnc2[nH]cc(C(=O)c3c(F)ccc(NS(=O)(=O)C(C)C)c3F)c12` [Compound P-2001, N-[2,4-difluoro-3-(4-methoxy-1H-pyrrolo[2,3-b]pyridine-3-carbonyl)phenyl]propane-2-sulfonamide], the IC50 at BRAF V600E is 0.0001 to 1 µM; in assay [2] it was > 10 µM. Moreover, the EC50 (in the assay on B9 (HRAS Q61L) cell line; in assay [1]) was > 10 µM throughout.

As for `CN(C)S(=O)(=O)Nc1ccc(F)c(C(=O)c2c[nH]c3ncncc23)c1F` [P-2026, 5-[3-(dimethylsulfamoylamino)-2,6-difluoro-benzoyl]-7H-pyrrolo[2,3-d]pyrimidine], the 50% inhibitory concentration (IC50) against BRAF V600E was 1 to 10 µM; in assay [2] it was > 10 µM. Moreover, the EC50 (in the assay on B9 (HRAS Q61L) cell line; in assay [1]) was > 10 µM each time.

Consider `COc1ncnc2[nH]cc(C(=O)c3cccc(NS(=O)(=O)N4CCCC4)c3F)c12` [P-2084, N-[2-fluoro-3-(4-methoxy-7H-pyrrolo[2,3-d]pyrimidine-5-carbonyl)phenyl]pyrrolidine-1-sulfonamide], for which the IC50 (at BRAF V600E; in assay [2]) was 0.0001 to 1 µM each time. The EC50 (in the assay on B9 (HRAS Q61L) cell line; in assay [1]) was > 10 µM in each case.

In the case of `COc1ccnc2[nH]cc(C(=O)c3c(F)ccc(NS(=O)(=O)N(C)C)c3F)c12` [Compound P-2002, 3-[3-(dimethylsulfamoylamino)-2,6-difluoro-benzoyl]-4-methoxy-1H-pyrrolo[2,3-b]pyridine], the IC50 (against BRAF V600E; in assay [2]) was 0.0001 to 1 µM in each case. Moreover, the EC50 (in the assay with B9 (HRAS Q61L) cell line; in assay [1]) was > 10 µM in each case.

Regarding `CC(C)(C)c1nc(-c2cccc(NS(=O)(=O)N3CCCC3)c2F)c(Br)s1` [P-2127, N-[3-(5-bromo-2-tert-butyl-thiazol-4-yl)-2-fluoro-phenyl]pyrrolidine-1-sulfonamide], the IC50 against BRAF V600E is 0.0001 to 1 µM; in assay [2], > 10 µM. Besides, the EC50 (with B9 (HRAS Q61L) cell line; in assay [1]) was > 10 µM in each case.

Consider `CCN(C)S(=O)(=O)Nc1ccc(F)c(C(=O)c2c[nH]c3ncnc(NC(C)C)c23)c1F` [P-2117, 5-[3-[[ethyl(methyl)sulfamoyl]amino]-2,6-difluoro-benzoyl]-4-(isopropylamino)-7H-pyrrolo[2,3-d]pyrimidine], for which the IC50 (against BRAF V600E; in assay [2]) was 0.0001 to 1 µM throughout. In addition, the EC50 (in the assay with B9 (HRAS Q61L) cell line; in assay [1]) was > 10 µM in each case.

For `COc1ccnc2[nH]cc(C(=O)c3c(F)ccc(NS(=O)(=O)C4CCCCC4)c3F)c12` [Compound P-2005, N-[2,4-difluoro-3-(4-methoxy-1H-pyrrolo[2,3-b]pyridine-3-carbonyl)phenyl]cyclohexanesulfonamide], the IC50 against BRAF V600E was 0.0001 to 1 µM; in assay [2], 1 to 10 µM. Besides, the EC50 (in the assay with B9 (HRAS Q61L) cell line; in assay [1]) was > 10 µM each time.

Turning to `O=C(c1cc(C(F)(F)F)cc(NS(=O)(=O)N2CCCC2)c1F)c1c[nH]c2ncc(-c3cnc(C4CC4)nc3)cc12` [P-2179, N-[3-[5-(2-cyclopropylpyrimidin-5-yl)-1H-pyrrolo[2,3-b]pyridine-3-carbonyl]-2-fluoro-5-(trifluoromethyl)phenyl]pyrrolidine-1-sulfonamide], the IC50 was 1 to 10 µM against BRAF V600E and > 10 µM in assay [2]. For the same compound, the EC50 (in the assay on B9 (HRAS Q61L) cell line; in assay [1]) was > 10 µM in each case.

Consider `O=C(c1c(F)ccc(NS(=O)(=O)N2CCOCC2)c1F)c1c[nH]c2nccc(Cl)c12` [P-2024, N-[3-(4-chloro-1H-pyrrolo[2,3-b]pyridine-3-carbonyl)-2,4-difluoro-phenyl]morpholine-4-sulfonamide], for which the IC50 (on BRAF V600E; in assay [2]) was 0.0001 to 1 µM in each case. Besides, the concentration giving a half-maximal response (EC50) (in the assay with B9 (HRAS Q61L) cell line; in assay [1]) was > 10 µM each time.

As to `O=C(c1c(F)ccc(NS(=O)(=O)C2CCCCC2)c1F)c1c[nH]c2nccc(Cl)c12` [P-2014, N-[3-(4-chloro-1H-pyrrolo[2,3-b]pyridine-3-carbonyl)-2,4-difluoro-phenyl]cyclohexanesulfonamide], the IC50 (at BRAF V600E; in assay [2]) was 0.0001 to 1 µM each time. Moreover, the EC50 (in the assay on B9 (HRAS Q61L) cell line; in assay [1]) was > 10 µM in each case.

As for `CCN(CC)S(=O)(=O)Nc1ccc(F)c(C(=O)c2c[nH]c3ncnc(NC(C)C)c23)c1F` [P-2042, 5-[3-(diethylsulfamoylamino)-2,6-difluoro-benzoyl]-4-(isopropylamino)-7H-pyrrolo[2,3-d]pyrimidine], the IC50 (against BRAF V600E; in assay [2]) was 0.0001 to 1 µM throughout. The EC50 (with B9 (HRAS Q61L) cell line; in assay [1]) was > 10 µM each time.

`O=C(c1c(F)ccc(NS(=O)(=O)N2CCOCC2)c1F)c1c[nH]c2ncncc12` [P-2031, N-[2,4-difluoro-3-(7H-pyrrolo[2,3-d]pyrimidine-5-carbonyl)phenyl]morpholine-4-sulfonamide]: the IC50 against BRAF V600E is 1 to 10 µM; in assay [2], > 10 µM. In addition, the EC50 (with B9 (HRAS Q61L) cell line; in assay [1]) was > 10 µM in each case.

In the case of `CCN(CC)S(=O)(=O)Nc1ccc(F)c(C(=O)c2c[nH]c3nccc(OC)c23)c1F` [Compound P-2004, 3-[3-(diethylsulfamoylamino)-2,6-difluoro-benzoyl]-4-methoxy-1H-pyrrolo[2,3-b]pyridine], the IC50 on BRAF V600E was 1 to 10 µM; in assay [2], > 10 µM. In addition, the EC50 (in the assay with B9 (HRAS Q61L) cell line; in assay [1]) was > 10 µM in each case.

`O=C(c1c(F)ccc(NS(=O)(=O)C2CCOCC2)c1F)c1c[nH]c2ncnc(NCC3CC3)c12` [P-2058, N-[3-[4-(cyclopropylmethylamino)-7H-pyrrolo[2,3-d]pyrimidine-5-carbonyl]-2,4-difluoro-phenyl]tetrahydropyran-4-sulfonamide]: the IC50 (on BRAF V600E; in assay [2]) was 0.0001 to 1 µM in each case. Also, the EC50 (in the assay on B9 (HRAS Q61L) cell line; in assay [1]) was > 10 µM each time.

For `O=C(c1c(F)ccc(NS(=O)(=O)C2CCCCC2)c1F)c1c[nH]c2ncncc12` [P-2027, N-[2,4-difluoro-3-(7H-pyrrolo[2,3-d]pyrimidine-5-carbonyl)phenyl]cyclohexanesulfonamide], the IC50 (against BRAF V600E; in assay [2]) was 0.0001 to 1 µM throughout. The EC50 (in the assay on B9 (HRAS Q61L) cell line; in assay [1]) was > 10 µM in each case.

For the compound `O=C(c1cccc(NS(=O)(=O)N2CCCC2)c1F)c1c[nH]c2ncnc(NC3CCOCC3)c12` [P-2083, N-[2-fluoro-3-[4-(tetrahydropyran-4-ylamino)-7H-pyrrolo[2,3-d]pyrimidine-5-carbonyl]phenyl]pyrrolidine-1-sulfonamide], the IC50 (against BRAF V600E; in assay [2]) was 0.0001 to 1 µM in each case. Also, the EC50 (in the assay with B9 (HRAS Q61L) cell line; in assay [1]) was > 10 µM throughout.

As for `O=C(c1cccc(NS(=O)(=O)N2CCCC2)c1F)c1c[nH]c2ncnc(NCC3CC3)c12` [P-2057, N-[3-[4-(cyclopropylmethylamino)-7H-pyrrolo[2,3-d]pyrimidine-5-carbonyl]-2-fluoro-phenyl]pyrrolidine-1-sulfonamide], the IC50 (against BRAF V600E; in assay [2]) was 0.0001 to 1 µM each time. In addition, the EC50 (in the assay on B9 (HRAS Q61L) cell line; in assay [1]) was > 10 µM each time.

On to `CCC(C)S(=O)(=O)Nc1ccc(F)c(C(=O)c2c[nH]c3nccc(C#N)c23)c1F` (centres unmarked) [P-2020, N-[3-(4-cyano-1H-pyrrolo[2,3-b]pyridine-3-carbonyl)-2,4-difluoro-phenyl]butane-2-sulfonamide], for which the IC50 (at BRAF V600E; in assay [2]) was 0.0001 to 1 µM each time. For the same compound, the EC50 (in the assay on B9 (HRAS Q61L) cell line; in assay [1]) was > 10 µM each time.

(Values after US10421761B2, “Compounds for kinase modulation, and indications therefor” (Plexxikon Inc., priority 2013, dated 2019).)
